From ChEMBL document CHEMBL6114980, “Single or double lipid-modified ultra-short antimicrobial peptides for treating infections caused by resistant bacteria” (Eur J Med Chem, 2025)
Values after ≈ are worked out from the molar mass of the structure shown. Active and inactive are the calls of the source. No cut-off for these calls is given here.

Experiments:
Staphylococcus aureus [1] = assay: Bactericidal activity against Staphylococcus aureus 25923 assessed as eradication of bacteria at 2 times MIC measured after 6 hrs by time-kill assay; assay type: functional, organism-based
Staphylococcus aureus [2] = assay: Induction of morphological changes in Staphylococcus aureus assessed as cell aggregation adhesion at 2 times MIC measured after 120 mins by SEM analysis; assay type: functional, organism-based
Staphylococcus aureus [3] = assay: Induction of cell membrane disruption in Staphylococcus aureus assessed as PI uptake at 2 to 4 times MIC measured after 120 mins by PI staining based flow cytometry analysis; assay type: functional, organism-based
Staphylococcus aureus [4] = assay: Antibacterial activity against methicillin resistant Staphylococcus aureus infected in male BALB/c mouse model of skin wound infection assessed as reduction in wound area at 2 mg/kg, ip measured after 10 days post infection relative to control; assay type: functional; set-up: scale not given: the % may be the effect or the level left; conditions: time 10 day
Staphylococcus aureus [5] = assay: Antibacterial activity against methicillin resistant Staphylococcus aureus infected in male BALB/c mouse model of skin wound infection assessed as appearance of intact structure of stratum corneum at 2 mg/kg, ip measured after 10 days post infection; assay type: functional, organism-based; conditions: time 10.0 day
Staphylococcus aureus [6] = assay: Antibacterial activity against methicillin resistant Staphylococcus aureus infected in male BALB/c mouse model of skin wound infection assessed as healthy development of sebaceous glands at 2 mg/kg, ip measured after 10 days post infection; assay type: functional, organism-based; conditions: time 10.0 day
Staphylococcus aureus [7] = assay: Antibacterial activity against methicillin resistant Staphylococcus aureus infected in male BALB/c mouse model of skin wound infection assessed as healthy development of hair follicles at 2 mg/kg, ip measured after 10 days post infection; assay type: functional, organism-based; conditions: time 10.0 day
Acinetobacter baumannii [8] = assay: Antibacterial activity against Acinetobacter baumannii ATCC 19606 assessed as reduction in bacterial growth incubated for 18 to 24 hrs by broth microdilution method; assay type: functional; conditions: time 18-24 hrs
Klebsiella pneumoniae [9] = assay: Antibacterial activity against Klebsiella pneumoniae ATCC 700603 assessed as reduction in bacterial growth incubated for 18 to 24 hrs by broth microdilution method; assay type: functional; conditions: time 18-24 hrs
Escherichia coli [10] = assay: Antibacterial activity against Escherichia coli ATCC 25922 assessed as reduction in bacterial growth incubated for 18 to 24 hrs by broth microdilution method; assay type: functional; conditions: time 18-24 hrs
Pseudomonas aeruginosa [11] = assay: Antibacterial activity against Pseudomonas aeruginosa ATCC 27853 assessed as reduction in bacterial growth incubated for 18 to 24 hrs by broth microdilution method; assay type: functional; conditions: time 18-24 hrs
Staphylococcus aureus [12] = assay: Antibacterial activity against methicillin-resistant Staphylococcus aureus ATCC 33591 assessed as reduction in bacterial growth incubated for 18 to 24 hrs by broth microdilution method; assay type: functional; conditions: time 18-24 hrs
Staphylococcus aureus [13] = assay: Antibacterial activity against methicillin-resistant Staphylococcus aureus 75 assessed as reduction in bacterial growth incubated for 18 to 24 hrs by broth microdilution method; assay type: functional; conditions: time 18-24 hrs
Staphylococcus aureus [14] = assay: Antibacterial activity against Staphylococcus aureus 113 assessed as reduction in bacterial growth incubated for 18 to 24 hrs by broth microdilution method; assay type: functional; conditions: time 18-24 hrs
Staphylococcus aureus [15] = assay: Antibacterial activity against Staphylococcus aureus 125 assessed as reduction in bacterial growth incubated for 18 to 24 hrs by broth microdilution method; assay type: functional; conditions: time 18-24 hrs
Staphylococcus aureus [16] = assay: Antibacterial activity against Staphylococcus aureus 794 assessed as reduction in bacterial growth incubated for 18 to 24 hrs by broth microdilution method; assay type: functional; conditions: time 18-24 hrs
Enterococcus faecalis = assay: Antibacterial activity against Enterococcus faecalis ATCC 29212 assessed as reduction in bacterial growth incubated for 18 to 24 hrs by broth microdilution method; assay type: functional; conditions: time 18-24 hrs
[17] = system: Staphylococcus epidermidis; assay: Antibacterial activity against Staphylococcus epidermidis ATCC 12228 assessed as reduction in bacterial growth incubated for 18 to 24 hrs by broth microdilution method; assay type: functional; conditions: time 18-24 hrs
Bacillus subtilis = assay: Antibacterial activity against Bacillus subtilis ATCC 23857 assessed as reduction in bacterial growth incubated for 18 to 24 hrs by broth microdilution method; assay type: functional; conditions: time 18-24 hrs
Staphylococcus aureus [18] = assay: Antibacterial activity against Staphylococcus aureus ATCC 25923 assessed as reduction in bacterial growth incubated for 18 to 24 hrs by broth microdilution method; assay type: functional; conditions: time 18-24 hrs
Acinetobacter baumannii [19] = assay: Antibacterial activity against Acinetobacter baumannii 5444 assessed as reduction in bacterial growth incubated for 18 to 24 hrs by broth microdilution method; assay type: functional; conditions: time 18-24 hrs
Acinetobacter baumannii [20] = assay: Antibacterial activity against Acinetobacter baumannii 92359 assessed as reduction in bacterial growth incubated for 18 to 24 hrs by broth microdilution method; assay type: functional; conditions: time 18-24 hrs
Escherichia coli [21] = assay: Antibacterial activity against Escherichia coli 850 assessed as reduction in bacterial growth incubated for 18 to 24 hrs by broth microdilution method; assay type: functional; conditions: time 18-24 hrs
Escherichia coli [22] = assay: Antibacterial activity against Escherichia coli 780 assessed as reduction in bacterial growth incubated for 18 to 24 hrs by broth microdilution method; assay type: functional; conditions: time 18-24 hrs
Pseudomonas aeruginosa [23] = assay: Antibacterial activity against Pseudomonas aeruginosa 124 assessed as reduction in bacterial growth incubated for 18 to 24 hrs by broth microdilution method; assay type: functional; conditions: time 18-24 hrs
Pseudomonas aeruginosa [24] = assay: Antibacterial activity against Pseudomonas aeruginosa 6434N assessed as reduction in bacterial growth incubated for 18 to 24 hrs by broth microdilution method; assay type: functional; conditions: time 18-24 hrs
Klebsiella pneumoniae [25] = assay: Induction of morphological changes in Klebsiella pneumoniae assessed as cell contraction at 2 times MIC measured after 30 mins by SEM analysis; assay type: functional, organism-based
Klebsiella pneumoniae [26] = assay: Induction of morphological changes in Klebsiella pneumoniae assessed as cell aggregation at 2 times MIC measured after 30 mins by SEM analysis; assay type: functional, organism-based
Klebsiella pneumoniae [27] = assay: Induction of morphological changes in Klebsiella pneumoniae assessed as cell adhesion at 2 times MIC measured after 30 mins by SEM analysis; assay type: functional, organism-based
Klebsiella pneumoniae [28] = assay: Induction of morphological changes in Klebsiella pneumoniae assessed as cell contraction at 2 times MIC measured after 120 mins by SEM analysis; assay type: functional, organism-based
Klebsiella pneumoniae [29] = assay: Induction of morphological changes in Klebsiella pneumoniae assessed as cell aggregation at 2 times MIC measured after 120 mins by SEM analysis; assay type: functional, organism-based
Klebsiella pneumoniae [30] = assay: Induction of morphological changes in Klebsiella pneumoniae assessed as cell adhesion at 2 times MIC measured after 120 mins by SEM analysis; assay type: functional, organism-based
Escherichia coli [31] = assay: Induction of cell membrane disruption in Escherichia coli assessed as PI uptake at 2 times MIC measured after 120 mins by PI staining based flow cytometry analysis (Rvb =<10 %); assay type: functional; conditions: 2 h
Escherichia coli [32] = assay: Induction of cell membrane disruption in Escherichia coli assessed as PI uptake at 4 times MIC measured after 120 mins by PI staining based flow cytometry analysis; assay type: functional, organism-based
Cell membrane [33] = assay: Induction of outer membrane permeabilization in Escherichia coli assessed as increase in fluorescence intensity measured for 10 mins by fluorescence based NPN uptake assay
Cell membrane [34] = assay: Induction of outer membrane permeabilization in Escherichia coli assessed as increase in fluorescence intensity at 0.5 times MIC measured for 10 mins by fluorescence based NPN uptake assay
Cell membrane [35] = assay: Induction of inner membrane permeabilization in Escherichia coli at 0.5 to 4 times MIC measured for 135 mins by absorbance based analysis
Cell membrane [36] = assay: Induction of cytoplasmic membrane depolarization in Staphylococcus aureus assessed as increase in fluorescence intensity at 0.5 to 4 times MIC measured for 10 mins by DiSC3-5 dye based fluorescence assay; assay type: subcellular
Lipopolysaccharide (LPS) = assay: Binding affinity to LPS (unknown origin) assessed as reduction in bacterial mortality at 2 times MIC preincubated with LPS for 1 hr followed by bacteria addition for 24 hrs by spectrophotometric analysis
Staphylococcus aureus [37] = assay: Antibacterial activity against Staphylococcus aureus 25923 at sub-MIC concentration measured after 15 passages; assay type: functional, organism-based
Staphylococcus aureus [38] = assay: Antibacterial activity against Staphylococcus aureus 25923 at sub-MIC concentration measured after 15 passages in presence of rifampin; assay type: functional, organism-based
Escherichia coli [39] = assay: Antibacterial activity against Escherichia coli 25922 at sub-MIC concentration measured after 15 passages in presence of rifampin; assay type: functional, organism-based
Klebsiella pneumoniae [40] = assay: Antibacterial activity against Klebsiella pneumoniae ATCC 700603 infected in male BALB/c mouse lung infection model assessed as reduction in number of inflammatory cells at 5 mg/kg, ip measured after 6 to 36 hrs; assay type: functional, organism-based; conditions: time 6-36 hrs
Staphylococcus aureus [41] = assay: Antibacterial activity against methicillin resistant Staphylococcus aureus infected in male BALB/c mouse model of skin wound infection assessed as reduction in wound area at 2 mg/kg, ip measured after 6 to 36 hrs postinfection; assay type: functional, organism-based; conditions: time 6-36 hrs

Structure (SMILES)	MIC (Acinetobacter baumannii [8]) [µM]	MIC (Klebsiella pneumoniae [9]) [µM]	MIC (Escherichia coli [10]) [µM]	MIC (Pseudomonas aeruginosa [11]) [µM]	MIC (Staphylococcus aureus [12]) [µM]	MIC (Staphylococcus aureus [13]) [µM]	MIC (Staphylococcus aureus [14]) [µM]	MIC (Staphylococcus aureus [15]) [µM]	MIC (Staphylococcus aureus [16]) [µM]	MIC (Enterococcus faecalis) [µM]	MIC [17] [µM]	MIC (Bacillus subtilis) [µM]	MIC (Staphylococcus aureus [18]) [µM]	MIC (Acinetobacter baumannii [19]) [µM]	MIC (Acinetobacter baumannii [20]) [µM]	MIC (Escherichia coli [21]) [µM]	MIC (Escherichia coli [22]) [µM]	MIC (Pseudomonas aeruginosa [23]) [µM]	MIC (Pseudomonas aeruginosa [24]) [µM]	other results
CN[C@H](CC(C)C)C(=O)N[C@H]1C(=O)N[C@@H](CC(N)=O)C(=O)N[C@H]2C(=O)N[C@H]3C(=O)N[C@H](C(=O)N[C@H](C(=O)O)c4cc(O)cc(O)c4-c4cc3ccc4O)[C@H](O)c3ccc(c(Cl)c3)Oc3cc2cc(c3O[C@@H]2O[C@H](CO)[C@@H](O)[C@H](O)[C@H]2O[C@H]2C[C@](C)(N)[C@H](O)[C@H](C)O2)Oc2ccc(cc2Cl)[C@H]1O [VANCOMYCIN]	–	–	–	–	–	–	–	–	–	–	–	–	–	–	–	–	–	–	–	Activity (Staphylococcus aureus [1]): inactive; Activity (Staphylococcus aureus [2]): inactive; Activity (Staphylococcus aureus [3]): inactive; Activity (Staphylococcus aureus [4]): <20%; Activity (Staphylococcus aureus [5]): Active; Activity (Staphylococcus aureus [6]): Active; Activity (Staphylococcus aureus [7]): Active
COc1cccc(OC)c1C(=O)N[C@@H]1C(=O)N2[C@@H]1SC(C)(C)[C@@H]2C(=O)O [METHICILLIN]	128 (≈ 48.7 µg/mL)	128 (≈ 48.7 µg/mL)	128 (≈ 48.7 µg/mL)	128 (≈ 48.7 µg/mL)	128 (≈ 48.7 µg/mL)	128 (≈ 48.7 µg/mL)	8 (≈ 3.04 µg/mL)	2 (≈ 0.761 µg/mL)	128 (≈ 48.7 µg/mL)	128 (≈ 48.7 µg/mL)	4 (≈ 1.52 µg/mL)	2 (≈ 0.761 µg/mL)	1 (≈ 0.38 µg/mL)	128 (≈ 48.7 µg/mL)	128 (≈ 48.7 µg/mL)	128 (≈ 48.7 µg/mL)	128 (≈ 48.7 µg/mL)	128 (≈ 48.7 µg/mL)	128 (≈ 48.7 µg/mL)	–
CC(C)CCCCC(=O)N[C@@H](CCN)C(=O)N[C@H](C(=O)N[C@@H](CCN)C(=O)N[C@H]1CCNC(=O)[C@H]([C@@H](C)O)NC(=O)[C@H](CCN)NC(=O)[C@H](CCN)NC(=O)[C@H](CC(C)C)NC(=O)[C@@H](Cc2ccccc2)NC(=O)[C@@H](CCN)NC1=O)[C@@H](C)O.CC[C@H](C)CCCCC(=O)N[C@@H](CCN)C(=O)N[C@H](C(=O)N[C@@H](CCN)C(=O)N[C@H]1CCNC(=O)[C@H]([C@@H](C)O)NC(=O)[C@H](CCN)NC(=O)[C@H](CCN)NC(=O)[C@H](CC(C)C)NC(=O)[C@@H](Cc2ccccc2)NC(=O)[C@@H](CCN)NC1=O)[C@@H](C)O	–	–	–	–	–	–	–	–	–	–	–	–	–	–	–	–	–	–	–	Activity (Klebsiella pneumoniae [25]): Active; Activity (Klebsiella pneumoniae [26]): Active; Activity (Klebsiella pneumoniae [27]): Active; Activity (Klebsiella pneumoniae [28]): Active; Activity (Klebsiella pneumoniae [29]): Active; Activity (Klebsiella pneumoniae [30]): Active; Activity (Escherichia coli [31]): >20%; Activity (Escherichia coli [32]): inactive; Activity (Cell membrane [33]): Dose-dependent-effect; Activity (Cell membrane [34]): Active; Compound Showed Slightly Inferior Activity Than Compound D8; Activity (Cell membrane [35]): Active; Compound Showed Lower Efficacy Than Positive Control 0.1% Tritionx 100; Activity (Cell membrane [36]): Weak_effect; Activity (Lipopolysaccharide (LPS)): Active; Activity (Staphylococcus aureus [37]): inactive; Activity (Staphylococcus aureus [38]): Active; Activity (Escherichia coli [39]): Active; Activity (Klebsiella pneumoniae [40]): inactive; Activity (Staphylococcus aureus [41]): Active
CN[C@@H]1[C@H](O[C@H]2[C@H](O[C@H]3[C@H](O)[C@@H](O)[C@H](N=C(N)N)[C@@H](O)[C@@H]3N=C(N)N)O[C@@H](C)[C@]2(O)C=O)O[C@@H](CO)[C@H](O)[C@H]1O [STREPTOMYCIN]	64 (≈ 37.2 µg/mL)	1 (≈ 0.582 µg/mL)	4 (≈ 2.33 µg/mL)	2 (≈ 1.16 µg/mL)	64 (≈ 37.2 µg/mL)	64 (≈ 37.2 µg/mL)	128 (≈ 74.4 µg/mL)	128 (≈ 74.4 µg/mL)	128 (≈ 74.4 µg/mL)	16 (≈ 9.31 µg/mL)	1 (≈ 0.582 µg/mL)	1 (≈ 0.582 µg/mL)	1 (≈ 0.582 µg/mL)	128 (≈ 74.4 µg/mL)	128 (≈ 74.4 µg/mL)	32 (≈ 18.6 µg/mL)	128 (≈ 74.4 µg/mL)	4 (≈ 2.33 µg/mL)	2 (≈ 1.16 µg/mL)	–
